Patent publication EP0727207A1, “The pharmacological use of certain cystine derivatives” (priority 1990, dated 1991)

Tested on: Balb/c mice
Assay: delayed type hypersensitivity (DTH) reaction in the mouse ear, OXA-sensitized mice
Assay type: in vivo
Details: for Diff. Tt24-Tt0: ear thickness 24 hours after challenge; for Diff. Tt24-Tt0 / Diff Tt48-Tt0 / Diff Tt24-Tt0: mean; for Diff Tt48-Tt0: ear thickness 48 hours after challenge; for Diff Tt24-Tt0: L-forms
Source text: The property of the compounds diNAC, diBUT, diVAL, diCAP, diMeNAC, diEtNAC and diMeVAL to stimulate immune responses is illustrated by their efficacy in a model of the delayed type hypersensitivity (DTH) reaction in the mouse.
Both male and female Balb/c mice obtained from Bomholtsgaard (Denmark) and Charlie Rivers (England), were used at the weight of 18-20 gram. 4-ethoxymethylene-2-phenyloxazolone (OXA) was purchased from BDH (England) and served as an antigen in this test.
The mice were sensitized, Day 0, by epicutaneous application of 150 µl absolute ethanol-acetone (3:1) solution containing 3% OXA on the shaved thorax and abdomen. Treatment with the L-form of diNAC, diMeNAC, diEtNAC, diMeVAL, or vehicle (phosphate buffer, pH 7.0) was initiated by oral feeding immediately after sensitization and continued once daily to Day 6. […] after the sensitization both ears of all mice were challenged on both sides by topical application of 20 µl 1% OXA dissolved in peanut oil. Ear thickness was measured prior to and 24 or 48 hours after challenge using an Oditest spring calliper. Challenges and measurements were performed under light pentobarbital anasthesia. The intensity of the DTH reactions was expressed according to the formula: Tt24/48-Tt0 µm units, where t0, t24 and t48 represent the ear thickness before and 24 or 48 hours after challenge, respectively, in an individual […]. The results were expressed as the mean +/-S.E.M. The level of significance between means of the groups was obtained by Student's two-tailed t-test. Tables 1 and 2 show the results from 24 and 48 hours measurements, respectively, from a representative experiment with the L-form of diNAC. […]

[1] = 0.03 µmol/kg oral once daily Day 0 to Day 6
[2] = 0.30 µmol/kg oral once daily Day 0 to Day 6
[3] = 3.0 µmol/kg oral once daily Day 0 to Day 6
[4] = 30.0 µmol/kg oral once daily Day 0 to Day 6
[5] = Table 3, 24 h after challenge, 0.03 µmol/kg oral
[6] = Table 3, 24 h after challenge, 3.0 µmol/kg oral
[7] = Table 3, 48 h section, 0.03 µmol/kg oral
[8] = Table 3, 48 h section, 3.0 µmol/kg oral

In the case of `CC(=O)N[C@@H](CSSC[C@H](NC(C)=O)C(=O)O)C(=O)O` [L-diNAC, N,N'-diacetyl-L-cystine], the “Diff. Tt24-Tt0” value [1] is reported as 13.75 µm units, the “Diff. Tt24-Tt0” value [2] is reported as 15.70 µm units and the “Diff. Tt24-Tt0” value [3] is reported as 18.30 µm units. The “Diff. Tt24-Tt0” value [4] was 20.67 µm units, the “Diff Tt48-Tt0” value [1] was 11.65 µm units and the “Diff Tt48-Tt0” value [2] was 12.65 µm units. For the same compound, the “Diff Tt48-Tt0” value [3] was 14.95 µm units, the “Diff Tt48-Tt0” value [4] was 13.63 µm units and the “ear thickness after oral administration” value (result in words, 24 and 48 hours after challenge, oral) was “significant increase of the ear thickness in a concentration-response manner”.

With `CCCC(=O)N[C@@H](CSSC[C@H](NC(=O)CCC)C(=O)O)C(=O)O` [diBUT, N,N' - dibutyrylcystine] the “immunostimulating effect in the DTH reaction in the mouse ear” value (shortened to “immunostimulating effect”) (result in words) was “highly potent and efficient immunostimulating agents”.

In the case of `CCCCCCCC(=O)N[C@@H](CSSC[C@H](NC(=O)CCCCCCC)C(=O)O)C(=O)O` [diCAP, N,N'-dicaprylylcystine], the “immunostimulating effect” value (result in words) is reported as “highly potent and efficient immunostimulating agents”.

`CCOC(=O)[C@H](CSSC[C@H](NC(C)=O)C(=O)OCC)NC(C)=O` [diEtNAC, N,N'-diacetylcystine diethyl ester] was tested, and the “Diff Tt24-Tt0” value [5] was 11.75 µm units, the “Diff Tt24-Tt0” value [6] was 13.05 µm units and the “Diff Tt24-Tt0” value [7] was 13.15 µm units. For the same compound, the “Diff Tt24-Tt0” value [8] was 13.20 µm units and the “immunostimulating effect” value (result in words) was “highly potent and efficient immunostimulating agents”.

For `COC(=O)[C@H](CSSC[C@H](NC(C)=O)C(=O)OC)NC(C)=O` [diMeNAC, N,N'-diacetylcystine dimethyl ester], the “Diff Tt24-Tt0” value [5] was 18.00 µm units, the “Diff Tt24-Tt0” value [6] was 12.55 µm units and the “Diff Tt24-Tt0” value [7] was 12.85 µm units. The “Diff Tt24-Tt0” value [8] was 13.35 µm units and the “immunostimulating effect” value (result in words) was “highly potent and efficient immunostimulating agents”.

With `COC(=O)[C@H](CSSC[C@H](NC(=O)CC(C)C)C(=O)OC)NC(=O)CC(C)C` [diMeVAL, N,N'-diisovalerylcystine dimethyl ester] the “immunostimulating effect” value (result in words) was “highly potent and efficient immunostimulating agents”.

`CC(=O)N[C@@H](CSSC[C@H](NC(C)=O)C(=O)O)C(=O)O` [diNAC, N,N'-diacetylcystine] was tested, and the “immunostimulating effect” value (result in words) was “highly potent and efficient immunostimulating agents”.

`CC(C)CC(=O)N[C@@H](CSSC[C@H](NC(=O)CC(C)C)C(=O)O)C(=O)O` [diVAL, N,N'-diisovalerylcystine] was tested, and the “immunostimulating effect” value (result in words) was “highly potent and efficient immunostimulating agents”.
